Measurements from BindingDB's records for patent US12297186 (Agomab Spain, S.L.U., 2025).

Biological target: T1, TGF-beta receptor type-1 (Homo sapiens, UniProt P36897)
T1 sequence (P36897 whole entry): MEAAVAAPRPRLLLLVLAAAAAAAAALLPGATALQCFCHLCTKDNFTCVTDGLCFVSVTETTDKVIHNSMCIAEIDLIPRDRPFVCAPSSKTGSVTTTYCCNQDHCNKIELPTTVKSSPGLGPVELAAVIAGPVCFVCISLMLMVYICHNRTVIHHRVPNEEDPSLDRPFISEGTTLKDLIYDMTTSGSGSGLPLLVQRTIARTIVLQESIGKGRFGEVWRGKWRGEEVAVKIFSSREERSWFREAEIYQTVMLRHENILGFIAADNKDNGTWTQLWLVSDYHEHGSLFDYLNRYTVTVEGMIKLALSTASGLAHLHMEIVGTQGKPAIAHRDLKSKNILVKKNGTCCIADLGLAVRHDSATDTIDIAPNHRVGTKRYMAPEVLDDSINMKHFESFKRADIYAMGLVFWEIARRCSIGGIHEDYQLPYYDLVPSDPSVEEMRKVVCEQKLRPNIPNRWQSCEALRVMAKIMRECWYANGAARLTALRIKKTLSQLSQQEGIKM
Experiment: In Vitro Enzyme Assay
Method: Human TGFβl R-1 inhibition experiments were carried out in a white 384-microplate low flange (Corning 3572) with ADP-Glo kinase Assay Kit (Promega V9101) and TGβR-1 Kinase Enzyme System (Promega V4092). […] The reaction mixture was incubated in gentle shaking for 120 min at RT, after incubation of 10 μL of ADP-Glo Reagent was added and incubated in gentle shaking for 40 min at RT. 20 μL of Kinase Detection Reagent was added and plate was incubated in gentle shaking for 30 min at RT. Luminiscence (1000 ms) was measured in Perkin Elmer EnSpire Multimode plate reader.

Row | SMILES | IC50
1 | CC1C=C(CNC(=O)Cn2cc(-c3ccnc4ccccc34)c(-c3ccccn3)n2)C=CC1 (centres undefined) [US12297186, Example 10] | in the range around 450 nM
2 | O=C(Cn1cc(-c2ccnc3ccccc23)c(-c2ccccn2)n1)NCC1=CC(F)CC=C1 (centres undefined) [US12297186, Example 11] | in the range around 450 nM
3 | O=C(Cn1cc(-c2ccnc3ccccc23)c(-c2ccccn2)n1)NCC1=CC(Cl)CC=C1 (centres undefined) [US12297186, Example 12] | in the range around 450 nM
4 | N#CC1C=C(CNC(=O)Cn2cc(-c3ccnc4ccccc34)c(-c3ccccn3)n2)C=CC1 (centres undefined) [US12297186, Example 13] | in the range around 450 nM
